What all share (format): cell-based, mouse
The subject of experiment [1] is α7 integrin (LacZ reporter in α7βgal+/− myoblasts). Nature of the experiment: Myoblast α7+/LacZ integrin FDG assay (Burkin assay in myoblasts, 96-well). Conditions: 96-well; for Burkin Assay in Myoblasts, signal relative to DMSO: α7+/LacZ myoblasts; for Burkin Assay in Myoblasts, value relative to DMSO: SU9516 analogs, N=3-6.
Experiment [2] has as its system α7 integrin (LacZ reporter in α7+/LacZ myotubes). Nature of the experiment: Myotube α7 integrin FDG assay (Burkin assay in myotubes, 96-well). The settings on record: for Burkin Assay in Myotubes, value relative to DMSO: SU9516 analogs, 96-well, N=3-6.
The subject of experiment [3] is β-galactosidase in CMV-LacZ C2C12 myoblasts. Nature of the experiment: CMV-LacZ secondary screen in C2C12 myoblasts (β-Gal stabilizing assay). The settings on record: for CMV-LACZ in Myoblasts (β-galactosidase activity relative to DMSO): CMV-LacZ C2C12 myoblasts; for CMV-LACZ in Myoblasts, value relative to DMSO: SU9516 analogs, C2C12 CMV-LacZ, N=2. A digest of the protocol: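 A secondary screen identifies compounds that stabilize β-gal independently of the native promoter, using CMV-LacZ C2C12 cells. Curves span 0.5–40 μM at six levels, in duplicate.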

Experiment [4] deals with β-galactosidase in CMV-LacZ C2C12 myotubes. Nature of the experiment: CMV-LacZ secondary screen in C2C12 myotubes (β-Gal stabilizing assay). Conditions: for CMV-LACZ in Myotubes, signal relative to DMSO: C2C12 CMV-LacZ myotubes, fold relative to DMSO; for CMV-LACZ in Myotubes, value relative to DMSO: SU9516 analogs, C2C12 CMV-LacZ, N=2. In outline: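 Stable CMV-LacZ C2C12 clone; six-point curve 0.5–40 μM; duplicates.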

As to `Cc1ccc(Cn2nnc3c(=O)[nH]c(C4CCCN(C(=O)c5ccco5)C4)nc32)cc1` (stereo not drawn) [MLS001217212-01], the “Burkin Assay in Myoblasts, signal relative to DMSO” value is reported as 1.095 in experiment [1] (0.5 uM); 1.178 in experiment [1] (1 uM); 0.9785 in experiment [1] (5 uM); 0.9933 in experiment [1] (10 uM); 0.9967 in experiment [1] (20 uM); 1.064 in experiment [1] (40 uM). Besides, the “Burkin Assay in Myotubes, α7 integrin LacZ reporter signal relative to DMSO” value in experiment [2] (0.5 uM) stood at 0.8233; in experiment [2] (1 uM), 0.8386; in experiment [2] (5 uM), 0.8831; in experiment [2] (10 uM), 0.8772; in experiment [2] (20 uM), 0.7663; in experiment [2] (40 uM), 0.7366. Besides, the “CMV-LACZ in Myoblasts (β-galactosidase activity relative to DMSO)” value was 1.1804 in experiment [3] (0.5 uM); 0.9179 in experiment [3] (1 uM); 1.0711 in experiment [3] (5 uM); 1.0626 in experiment [3] (10 uM); 1.1137 in experiment [3] (20 uM); 0.9459 in experiment [3] (40 uM). For the same molecule, the “CMV-LACZ in Myotubes, signal relative to DMSO” value in experiment [4] (0.5 uM) is on record as 1.0190; in experiment [4] (1 uM), 0.9610; in experiment [4] (5 uM) it was 0.9795; in experiment [4] (10 uM), 1.0832; in experiment [4] (20 uM), 1.1842; in experiment [4] (40 uM) it was 1.0105.
Turning to `O=C1Nc2ccccc2/C1=C/c1cnc(-c2ccccc2)[nH]1` [MLS000834756-01], the “Burkin Assay in Myoblasts, value relative to DMSO” value is 1.056 in experiment [1] (0.5 uM); 1.098 in experiment [1] (1 uM); 1.227 in experiment [1] (5 uM); 1.172 in experiment [1] (10 uM); 1.064 in experiment [1] (20 uM); 1.081 in experiment [1] (40 uM). The “Burkin Assay in Myotubes, value relative to DMSO” value was found to be 1.079 in experiment [2] (0.5 uM); 1.189 in experiment [2] (1 uM); 1.095 in experiment [2] (5 uM); 0.9214 in experiment [2] (10 uM); 0.9495 in experiment [2] (20 uM); 0.9189 in experiment [2] (40 uM). The “CMV-LACZ in Myoblasts, value relative to DMSO” value stood at 0.8709 in experiment [3] (0.5 uM); 1.0422 in experiment [3] (1 uM); 1.2652 in experiment [3] (5 uM); 1.0917 in experiment [3] (10 uM); 0.8022 in experiment [3] (20 uM); 1.1889 in experiment [3] (40 uM). In addition, the “CMV-LACZ in Myotubes, value relative to DMSO” value came to 0.9859 in experiment [4] (0.5 uM); 1.0059 in experiment [4] (1 uM); 1.1994 in experiment [4] (5 uM); 1.1713 in experiment [4] (10 uM); 2.0788 in experiment [4] (20 uM); 2.2953 in experiment [4] (40 uM).
Consider `Cc1cc([N+](=O)[O-])ccc1NC(=O)C(C)N1CCN(c2ccccn2)CC1` (stereo not drawn) [MLS000764729-01], for which the “Burkin Assay in Myoblasts, signal relative to DMSO” value in experiment [1] (0.5 uM) came to 1.088; in experiment [1] (1 uM), 1.0582; in experiment [1] (5 uM), 0.9816; in experiment [1] (10 uM) it was 0.9694; in experiment [1] (20 uM) it was 0.9581; in experiment [1] (40 uM), 0.726. In addition, the “Burkin Assay in Myotubes, α7 integrin LacZ reporter signal relative to DMSO” value in experiment [2] (0.5 uM) came to 1.055; in experiment [2] (1 uM), 1.084; in experiment [2] (5 uM) it was 1.008; in experiment [2] (10 uM), 0.972; in experiment [2] (20 uM) it was 0.681; in experiment [2] (40 uM) it was 0.6075. For the same molecule, the “CMV-LACZ in Myoblasts (β-galactosidase activity relative to DMSO)” value was 0.9865 in experiment [3] (0.5 uM); 0.9520 in experiment [3] (1 uM); 1.0259 in experiment [3] (5 uM); 0.8880 in experiment [3] (10 uM); 1.1200 in experiment [3] (20 uM); 0.7504 in experiment [3] (40 uM). The “CMV-LACZ in Myotubes, signal relative to DMSO” value in experiment [4] (0.5 uM) worked out at 1.0358; in experiment [4] (1 uM) it was 1.1432; in experiment [4] (5 uM), 1.0779; in experiment [4] (10 uM) it was 0.9634; in experiment [4] (20 uM) it was 0.9656; in experiment [4] (40 uM), 1.1900.
On to `O=C1CCC(C(=O)N2CCSCC2)CN1Cc1ccc(Cl)cc1` (stereo not drawn) [MLS001090787-01], for which the “Burkin Assay in Myoblasts, signal relative to DMSO” value in experiment [1] (0.5 uM) turned out to be 1.142; in experiment [1] (1 uM), 0.9734; in experiment [1] (5 uM) it was 1.263; in experiment [1] (10 uM) it was 1.46; in experiment [1] (20 uM) it was 1.265; in experiment [1] (40 uM), 1.222. Further, the “Burkin Assay in Myotubes, α7 integrin LacZ reporter signal relative to DMSO” value in experiment [2] (0.5 uM) was found to be 1.054; in experiment [2] (1 uM), 1.168; in experiment [2] (5 uM) it was 1.083; in experiment [2] (10 uM), 1.195; in experiment [2] (20 uM), 1.209; in experiment [2] (40 uM), 1.5544. The “CMV-LACZ in Myoblasts (β-galactosidase activity relative to DMSO)” value in experiment [3] (0.5 uM) turned out to be 0.9196; in experiment [3] (1 uM), 0.9754; in experiment [3] (5 uM), 0.9700; in experiment [3] (10 uM), 0.8594; in experiment [3] (20 uM), 0.7533; in experiment [3] (40 uM), 0.5907. For the same molecule, the “CMV-LACZ in Myotubes, signal relative to DMSO” value in experiment [4] (0.5 uM) amounted to 1.0009; in experiment [4] (1 uM) it was 0.9055; in experiment [4] (5 uM), 1.0126; in experiment [4] (10 uM) it was 1.1178; in experiment [4] (20 uM), 0.8990; in experiment [4] (40 uM), 0.9450.
As for `COc1ccc2c(c1)C(=C(C#N)C#N)C(=O)N2CCc1ccccc1` [MLS000763074-01], the “Burkin Assay in Myoblasts, value relative to DMSO” value in experiment [1] (0.5 uM) was found to be 1.199; in experiment [1] (1 uM), 1.067; in experiment [1] (5 uM) it was 0.843; in experiment [1] (10 uM), 1.134; in experiment [1] (20 uM) it was 0.6586; in experiment [1] (40 uM), 0.6085. The “Burkin Assay in Myotubes, value relative to DMSO” value in experiment [2] (0.5 uM) was 1.0274; in experiment [2] (1 uM), 1.128; in experiment [2] (5 uM) it was 1.043; in experiment [2] (10 uM), 0.907; in experiment [2] (20 uM), 0.1921; in experiment [2] (40 uM) it was 0.2622. The “CMV-LACZ in Myoblasts, value relative to DMSO” value in experiment [3] (0.5 uM) is on record as 0.8431; in experiment [3] (1 uM) it was 0.8256; in experiment [3] (5 uM), 1.1447; in experiment [3] (10 uM) it was 1.1966; in experiment [3] (20 uM), 1.2981; in experiment [3] (40 uM) it was 1.6644. The “CMV-LACZ in Myotubes, value relative to DMSO” value in experiment [4] (0.5 uM) came to 1.0089; in experiment [4] (1 uM), 0.8593; in experiment [4] (5 uM), 1.0487; in experiment [4] (10 uM), 0.9645; in experiment [4] (20 uM) it was 1.7671; in experiment [4] (40 uM), 1.9682.

The values are drawn from US9980943B2, “Methods of treating muscular dystrophy” (BOARD OF REGENTS OF THE NEVADA SYSTEM OF HIGHER EDUCATION, …, priority 2013, dated 2018).
